# Columns and labels:
# [1] = system: smooth muscle preparations; test: Vasodilatory activity on smooth muscle preparations (preparation not specified); format: cell-based, guinea pigs; conditions: for EC50: Cavia porcellus, setup of 4.3, preparation not specified, read-out: EC50 vasodilatory activity (negative controls); for vasodilatory activity on smooth muscle preparations: setup of 4.3, aqueous solution
# Protocol: (§1) The COS-releasing compounds according to the present invention were tested on isolated muscle-preparations of the aorta, arteria pulmonalis, terminal ileum, papillary muscle and the right atrium (derived from guinea pigs) for their vasodilatory effect.
# (§2) Guinea pigs of both sexes (340-480 g) were killed with a blow on the neck. After excision of the heart, the aorta and the ileum were dissected. The aorta was cleaned of loosely adhering fat and connective tissue and cut into rings of 2 mm width. The terminal portion of the ileum was removed and the 10 cm nearest to the caecum were discarded. The intestine was placed in a nutrient solution. The intestine was cleaned by flushing with nutrient solution and cut into pieces of 2 to 3 cm length. The arteria pulmonalis was dissected close to the heart, cleaned and cut into rings of 2 mm width. Papillary muscles were dissected from the right ventricle for contractility measurements. Purkinje fibres were carefully removed to prevent spontaneous activity. Only muscles with a diameter of less than 0.87 mm were used in order to have a sufficient oxygen supply. Chronotropic activity was tested on guinea-pig isolated right atria.
# (§3) After isolation the preparations (aortic rings, terminal ilea, arteria pulmonalis rings, papillary muscles and right atria) were stored at room temperature in gassed (95% O2-5% CO2) Krebs-Henseleit solution with the following composition (in mmol/l): NaCl 114.9, KCl 4.73, CaCl2 3.2, MgSO4 1.18, NaHCO3, 24.9, KH2PO4 1.18, glucose 10; pH 7.2-7.4.
# (§4) Isometric contraction force of electrically stimulated papillary muscles (1 Hz), terminal ilea precontracted by 60 mmol/l KCl, aortic and arteria pulmonalis rings precontracted by 90 mmol/l KCl as well as spontaneous activity of right atria was measured by the method described by Reiter (Reiter, M. Bioassay of inotropic agents on the isolated papillary muscle. Arzneim. Forsch. 1967, 17, 1249-1253).
# (§5) The preparations were placed in a continuously oxygenated (95% O2 and 5% CO2) bath of 35 ml nutrient solution to guarantee sufficient oxygen supply and appropriate pH as well as circulation of nutrient solution with and without test compound. The experiments were performed at a temperature of 37±1° C. The smooth and heart muscle preparations were connected with one end to a tissue holder and the other to a force transducer (Transbridge™, 4-Channel Transducer Amplifier, World Precision Instruments, Sarasota, Fla., USA). Papillary muscles were electrically driven with an Anapulse Stimulator Model 301-T and an Isolation Unit Model 305-1 (WPI, Hamden, Conn., USA) at a frequency of 1 Hz and a pulse duration of 3 ms. Amplitude of stimulation pulse was adjusted 10% above threshold level. Resting tension of either 3.92 mN (papillary muscles), 10.37 mN (right atria) or 19.6 mN (aortic and arteria pulmonalis rings) was kept constant throughout the experiments.
# (§6) Signals were recorded with a chart recorder (BD 112 Dual Channel, Kipp & Zonen) and evaluated. For statistical analyses the arithmetic means and standard error of the mean (SEM) of n experiments were calculated. Statistical significance of the results was evaluated by the Student's t-test for paired observations. EC50-values were graphically determined from the concentration response curves.
# (§7) Stock solutions of the compounds were dissolved in distilled water every day and were further diluted with modified Krebs-Henseleit solution to the required concentrations (1, 3, 10, 30 and 100 μmol/l).
# Compounds CRC59, CRC59HCl, CRC60 and CRC60HCl as indicated in the table below were used as negative controls in the present experimental setup. Due to the exchange of sulfur against oxygen, said compounds are not able to release COS.
# [2] = Stability in aqueous solution (concluded from inactivity in aqueous setup); format: physicochemical; conditions: conditions of 4.3
# From the text: Some of the COS releasing compounds according to formula (I) may, however, release COS in a spontaneous hydrolysis reaction due to the presence of H2O in aqueous solutions, suspensions, and the like. Said compounds may also be referred to as being “instable compounds” in aqueous solutions. The determination of the stability of COS releasing compounds according to the present invention may easily be determined, e.g. by dissolving a compound to be tested in an aqueous solution and determining the amount of COS released over time.
# terminal ileum = test: Isometric contraction force of isolated terminal ilea precontracted by KCl; format: cell-based, guinea pigs; conditions: Cavia porcellus; terminal ilea precontracted by 60 mmol/l KCl
# Protocol: as §1, §2, §3, §4, §5, §6, §7
# right atrium = test: Spontaneous (chronotropic) activity of isolated right atria; format: cell-based, guinea pigs; conditions: Cavia porcellus
# Protocol: as §1, §2, §3, §4, §5, §6, §7
# papillary muscle = test: Isometric contraction force of electrically stimulated papillary muscles; format: cell-based, guinea pigs; conditions: Cavia porcellus; electrically stimulated (1 Hz)
# Protocol: as §1, §2, §3, §4, §5, §6, §7
# arteria pulmonalis = test: Isometric contraction force of isolated arteria pulmonalis rings precontracted by KCl; format: cell-based, guinea pigs; conditions: Cavia porcellus; arteria pulmonalis rings precontracted by 90 mmol/l KCl
# Protocol: as §1, §2, §3, §4, §5, §6, §7
# aorta = test: Isometric contraction force of isolated aortic rings precontracted by KCl; format: cell-based, guinea pigs; conditions: for EC50: Cavia porcellus, aortic rings precontracted by 90 mmol/l KCl, Krebs-Henseleit solution, 37°C
# Protocol: as §1, §2, §3, §4, §5, §6, §7
# isolated mouse heart = test: Isolated mouse heart, Langendorff perfusion; format: cell-based, female OF-1 mice
# Protocol: Hearts from female OF-1 mice were excised, cannulated and perfused retrogradely, according to the Langendorff technique, with modified oxygenated Krebs-Henseleit-buffer at constant pressure. After 15 min of baseline perfusion, CRC1HCl (10 μM) was administered into the coronary perfusion system for 10 min. Coronary flow (CF), heart rate (HR), aortic pressure (AoP), concentrations of K^+, Na^+, Ca^2+ and the pH-value were monitored throughout the whole experiment (CRC1HCl-group, n=8; control group, n=8).
# In a second set of experiments in the setup as described above, nitro-L-arginine (L-NA) (n=6) and PNU-37883A (n=4) were evaluated as potential inhibitors of CRC1HCl (10 μM) activity. The compounds were added to final concentrations of 100 μM (L-NA) and 10 μM (PNU-37883A).
# Also, the myocardial consumption of lactate and glucose was monitored in both the control-group and the CRC1HCl-group.
# aortic rings = test: Contraction force of aortic rings in blood plasma; format: cell-based, guinea pigs; conditions: 100 μM, guinea pig blood plasma, KCl 90 mM, after 60 minutes
# Protocol: Guinea pigs of both sexes (340-480 g) were killed with a blow on the neck. The thorax was opened immediately and heparinized blood was collected. After centrifugation of the blood, the blood plasma was obtained which was used in the further experiments. Further, the aorta of the guinea pigs was excised and prepared as described in 4.3. Thus, the aortic rings were present at room temperature in Krebs-Henseleit solution and put under a resting tension. The contraction force was determined as described under 4.3. A stock solution of CRC80HCl in distilled water was prepared. CRC80HCl was used in a final concentration of 100 μM in the experiments.
# In a second experiment, the Krebs-Henseleit solution was exchanged with blood plasma of the guinea pigs gained as described above prior to the addition of CRC80HCl. Thus, the Krebs-Henseleit solution was exchanged by 6 ml blood plasma and KCl was added 15 minutes later to a final concentration of 90 mM. Once a steady state was reached, CRC80HCl was added to a final concentration of 100 μM and the contraction force was recorded over a period of 60 minutes. After the period of 60 minutes, a decrease of the contraction force of 39% was observed.
# [3] = 10 μM, vs control, data not shown
EC50 (terminal ileum) [µM],EC50 (right atrium) [µM],EC50 (papillary muscle) [µM],EC50 (arteria pulmonalis) [µM],EC50 (aorta) [µM],Compound,further results
–,–,–,–,–,Cl.O=C(OC1CCCCC1)n1ccnc1 [CRC59HCl],EC50 [1]: > 100 µM; vasodilatory activity on smooth muscle preparations [1]: did not show vasodilatory activity
–,–,–,–,–,S=C(N1CCN(C(=S)n2ccnc2)CC1)n1ccnc1 [CRC66],melting point: 225 to 226 °C
–,–,–,–,–,O=C(OC1CCCCC1)n1ccnc1 [CRC59],vasodilatory activity on smooth muscle preparations [1]: did not show vasodilatory activity
–,–,–,–,–,CN(C)CCOC(=S)OCCN(C)C.Cl.Cl [CRC72HCl],vasodilatory activity on smooth muscle preparations [1]: inactive; stability in aqueous solutions [2]: stable in aqueous solutions
32.1,> 100,> 100,19.8,16,CCOC(=O)CCSC(=S)n1ccnc1 [CRC11HCl],–
–,–,–,–,–,CC(C)OC(=O)n1ccnc1.Cl [CRC60HCl],EC50 [1]: > 100 µM; vasodilatory activity on smooth muscle preparations [1]: did not show vasodilatory activity
100,> 100,77,24,5.75,CC(=O)OCCSC(=S)n1ccnc1 [CRC13HCl],–
100,> 100,> 100,24,12.8,COc1ccc(CSC(=S)n2ccnc2)cc1 [CRC10HCl],–
5.7,> 100,78,6.9,7.8,CSC(=S)n1ccnc1.Cl [CRC1HCl],"aortic pressure (AoP) (isolated mouse heart; 10 μM for 10 min, vs control): not significantly affected or altered; concentration of Ca2+ in coronary effusate (isolated mouse heart; 10 μM for 10 min, vs control): not significantly affected or altered; concentration of K+ in coronary effusate (isolated mouse heart; 10 μM for 10 min, vs control): not significantly affected or altered; concentration of Na+ in coronary effusate (isolated mouse heart; 10 μM for 10 min, vs control): not significantly affected or altered; heart rate (HR) (isolated mouse heart; 10 μM for 10 min, vs control): not significantly affected or altered; pH-value of coronary effusate (isolated mouse heart; 10 μM for 10 min, vs control): not significantly affected or altered; coronary flow (CF) (isolated mouse heart; 10 μM for 10 min, during and 30 minutes after administration, vs control, p<0.05): significantly increased; myocardial consumption of glucose (isolated mouse heart; [3]): not significantly affected or altered; myocardial consumption of lactate (isolated mouse heart; [3]): not significantly affected or altered; effect of inhibition of ATP-sensitive potassium-channels on the vasodilatory effect (isolated mouse heart; CRC1HCl 10 μM with PNU-37883A 10 μM, data not shown): had no effect; effect of inhibition of nitric oxide synthase on the vasodilatory effect (isolated mouse heart; CRC1HCl 10 μM with nitro-L-arginine 100 μM, data not shown): had no effect"
15.3,> 100,26,63,20.1,S=C(SCc1ccccc1)n1ccnc1 [CRC8HCl],–
15.3,26.5,> 100,7.9,2.98,COc1cc(CSC(=S)n2ccnc2)cc(OC)c1OC [CRC33],melting point: 110 to 113 °C
–,–,–,–,–,CCOC(=S)OCCCN(C)C.Cl [CRC80HCl],"decrease of the contraction force (aortic rings): 39%; vasodilatory activity on the aortic ring in Krebs-Henseleit solution (aorta; 100 μM, period of 45 minutes): did not show a vasodilatory activity"
–,–,–,–,–,CC(C)OC(=O)n1ccnc1 [CRC60],vasodilatory activity on smooth muscle preparations [1]: did not show vasodilatory activity
17.2,15.3,> 100,10.5,3.36,Cc1nccn1C(=S)SCc1ccccc1 [CRC9HCl],–
25.6,56,> 100,25.1,22.8,CSC(=S)n1c(C)nc2ccccc21 [CRC4HCl],–
–,–,–,–,–,COc1ccc2ncn(C(=S)SC)c2c1 [CRC6],melting point: 64 to 87 °C
9.5,> 100,> 100,11.2,6.3,CSC(=S)n1ccnc1C [CRC5HCl],–

Compound,EC50 (terminal ileum) [µM],EC50 (right atrium) [µM],EC50 (papillary muscle) [µM],EC50 (arteria pulmonalis) [µM],EC50 (aorta) [µM],further results
"S [H2S, hydrogen sulfide, reference compound]",–,–,–,–,107,–

# Source: patent publication US20130005739A1, “PHARMACEUTICAL PREPARATIONS COMPRISING A COS RELEASING COMPOUND” (LUDWIG BOLTZMANN CLUSTER FUER KARDIOVASKULAERE FORSCHUNG, priority 2009, published 2013)
